Laboratory results as given in US7507727B2, “Substituted quinobenzoxazine analogs and methods of using thereof” (Cylene Pharmaceuticals, Inc., priority 2003, dated 2009).

Molecular target: c-Myc template DNA (c-myc quadruplex)
Assay: Quadruplex binding / stop assay (Taq polymerase arrest, capillary electrophoresis)
Settings: read-out: Stop Data c-Myc μM; concentration at which 50% of the DNA was arrested (arrested:full-length 1:1)

Structure (SMILES)	IC50
CN1CCCC1CCNC(=O)c1cn2c3c(c(NC4CC(C)(C)NC(C)(C)C4)c(F)cc3c1=O)Oc1cc3ccccc3cc1-2 (stereo not shown) [compound 325]	1 µM
CN(C)CCCCNc1ccc2c(=O)c(C(=O)NCCN3CCCC3)cn3c2c1Oc1cc2ccccc2cc1-3 [compound 326]	1 µM
N=C(N)NCCCNC(=O)c1cn2c3c(c(N4CC5CCCNC5C4)c(F)cc3c1=O)Oc1cc3ccccc3cc1-2 (stereo not shown) [compound 327]	1 µM
N=C(N)NCCCCNC(=O)c1cn2c3c(c(N4CC5CCCNC5C4)c(F)cc3c1=O)Oc1cc3ccccc3cc1-2 (stereo not shown) [compound 328]	1 µM
CN(C)CC(C)(C)CNC(=O)c1cn2c3c(c(N4CCC(N)C4)c(F)cc3c1=O)Oc1cc3ccccc3cc1-2 (stereo not shown) [compound 329]	1 µM
N=C(N)NCCCCNC(=O)c1cn2c3c(c(NCCCN4CCOCC4)c(F)cc3c1=O)Oc1cc3ccccc3cc1-2 [compound 330]	1 µM
N=C(N)NCC1CCCC(CNC(=O)c2cn3c4c(c(NCCCN5CCOCC5)c(F)cc4c2=O)Oc2cc4ccccc4cc2-3)C1 (stereo not shown) [compound 331]	1 µM
CN(C)CC(C)(C)CNC(=O)c1cn2c3c(c(NCCCN4CCOCC4)c(F)cc3c1=O)Oc1cc3ccccc3cc1-2 [compound 332]	1 µM
N=C(N)NCCCNC(=O)c1cn2c3c(c(NCCN4CCCC4)c(F)cc3c1=O)Oc1cc3ccccc3cc1-2 [compound 333]	1 µM
N=C(N)NCCCCNC(=O)c1cn2c3c(c(NCCN4CCCC4)c(F)cc3c1=O)Oc1cc3ccccc3cc1-2 [compound 334]	1 µM
CN1CCCC1CCNC(=O)c1cn2c3c(c(NCCCn4ccnc4)c(F)cc3c1=O)Oc1cc3ccccc3cc1-2 (stereo not shown) [compound 335]	1 µM
CCCCN1CCC(CNc2c(F)cc3c(=O)c(C(=O)NCCC4CCCN4C)cn4c3c2Oc2cc3ccccc3cc2-4)CC1 (stereo not shown) [compound 336]	1 µM
CC1CCCC(C)N1CCCNC(=O)c1cn2c3c(c(N4CCC(N)C4)c(F)cc3c1=O)Oc1cc3ccccc3cc1-2 (stereo not shown) [compound 337]	1 µM
CN1CCCC1CCNC(=O)c1cn2c3c(c(NC4CCS(=O)(=O)C4)c(F)cc3c1=O)Oc1cc3ccccc3cc1-2 (stereo not shown) [compound 338]	1 µM
CN1CCC[C@H]1CCNC(=O)c1cn2c3c(c(N4CCC(c5cnccn5)C4)c(F)cc3c1=O)Oc1cc3ccccc3cc1-2 (stereo partly shown) [compound 339]	0.94 µM
CN1CCN(CCCNC(=O)c2cn3c4c(c(NCCCN5CCN(C)CC5)c(F)cc4c2=O)Oc2cc4ccccc4cc2-3)CC1 [compound 342]	0.9 µM
CN1CCN(CCCNC(=O)c2cn3c4cc5c(=O)c6ccccc6c(=O)c5cc4oc4c(F)c(F)cc(c2=O)c43)CC1 [compound 344]	0.9 µM
COC(=O)C(CO)NC(=O)c1cn2c3cc4c(=O)c5ccccc5c(=O)c4cc3oc3c(NCCN4CCCC4)c(F)cc(c1=O)c32 (stereo not shown) [compound 345]	0.9 µM
CN1CCCC1CCNC(=O)c1cn2c3cc4c(=O)c5ccccc5c(=O)c4cc3oc3c(NCCC4CCCN4C)c(F)cc(c1=O)c32 (stereo not shown) [compound 346]	0.9 µM
CN(C)CCCCNC(=O)c1cn2c3cc4c(=O)c5ccccc5c(=O)c4cc3oc3c(NCCC4CCCN4C)c(F)cc(c1=O)c32 (stereo not shown) [compound 347]	0.9 µM
CN1CCCC1CCNC(=O)c1cn2c3cc4c(=O)c5ccccc5c(=O)c4cc3oc3c(NCCCN4CCOCC4)c(F)cc(c1=O)c32 (stereo not shown) [compound 348]	0.9 µM

Structure (SMILES)	IC50
CN1CCN(CCCNc2c(F)cc3c(=O)c(C(=O)NCCC4CCCN4C)cn4c5cc6c(=O)c7ccccc7c(=O)c6cc5oc2c34)CC1 (stereo not shown) [compound 349]	0.9 µM
CN1CCN(CCCNC(=O)c2cn3c4cc5c(=O)c6ccccc6c(=O)c5cc4oc4c(NCCCN5CCN(C)CC5)c(F)cc(c2=O)c43)CC1 [compound 350]	0.9 µM
CN1CCN(c2c(F)cc3c(=O)c(C(=O)NCCC4CCCN4C)cn4c5cc6c(=O)c7ccccc7c(=O)c6cc5oc2c34)CC1 (stereo not shown) [compound 351]	0.9 µM
CN1CCN(CCCNC(=O)c2cn3c4cc5c(=O)c6ccccc6c(=O)c5cc4oc4c(N5CCN(C)CC5)c(F)cc(c2=O)c43)CC1 [compound 352]	0.9 µM
CN(C)CCNC(=O)c1cn2c3cc4c(=O)c5ccccc5c(=O)c4cc3oc3c(N4CCN(C)CC4)c(F)cc(c1=O)c32 [compound 353]	0.9 µM
CN(C)CCCCNc1c(F)cc2c(=O)c(C(=O)NCCC3CCCN3C)cn3c4cc5c(=O)c6ccccc6c(=O)c5cc4oc1c23 (stereo not shown) [compound 354]	0.9 µM
CN1CCC[C@H]1CCNC(=O)c1cn2c3c(c(N4CCC(c5cnccn5)C4)c(F)cc3c1=O)Oc1cc3ccccc3cc1-2 (stereo partly shown) [compound 355]	0.89 µM
CN1CCC[C@@H]1CCNC(=O)c1cn2c3c(c(N4CCC(c5cnccn5)C4)c(F)cc3c1=O)Oc1cc3ccccc3cc1-2 (stereo partly shown) [compound 356]	0.85 µM
CC1CCCCN1CCCNc1c(F)cc2c(=O)c(C(=O)N3CCOCC3)cn3c2c1Oc1cc2ccccc2cc1-3 (stereo not shown) [compound 393]	0.75 µM
CN1CCN(CCCNc2c(F)cc3c(=O)c(C(=O)NCCC4CCCN4C)cn4c3c2Oc2cc3ccccc3cc2-4)CC1 (stereo not shown) [compound 394]	0.75 µM
CN1CCN(CCCNc2c(F)cc3c(=O)c(C(=O)NCCN4CCCC4)cn4c3c2Oc2cc3ccccc3cc2-4)CC1 [compound 395]	0.75 µM
CN(C)CCCCNC(=O)c1cn2c3c(c(NCCCN4CCN(C)CC4)c(F)cc3c1=O)Oc1cc3ccccc3cc1-2 [compound 396]	0.75 µM
CN(C)CCCCNc1c(F)cc2c(=O)c(C(=O)NCCCN3CCOCC3)cn3c2c1Oc1cc2ccccc2cc1-3 [compound 397]	0.75 µM
CN1CCN(CCCNc2c(F)cc3c(=O)c(C(=O)O)cn4c3c2Oc2cc3ccccc3cc2-4)CC1 [compound 398]	0.75 µM
CN1CCN(CCCNC(=O)c2cn3c4c(c(NCCN5CCCC5)c(F)cc4c2=O)Oc2c-3ccc3ccccc23)CC1 [compound 399]	0.75 µM
CN(C)CCCCNc1c(F)cc2c(=O)c(C(=O)NCCCN3CCOCC3)cn3c2c1Oc1c-3ccc2ccccc12 [compound 400]	0.75 µM
N[C@@H]1CCN(c2c(F)cc3c(=O)c(C(=O)NCCN4CCCC4)cn4c3c2Oc2c-4ccc3ccccc23)C1 [compound 401]	0.75 µM
CN1CCCC1CCNC(=O)c1cn2c3c(c(N4CC[C@@H](NC(=O)CCN5CCOCC5)C4)c(F)cc3c1=O)Oc1cc3c(cc1-2)oc1ccccc13 (stereo partly shown) [compound 402]	0.75 µM
CN1CCN(CCCNCCC(=O)N[C@@H]2CCN(c3c(F)cc4c(=O)c(C(=O)NCCN5CCCC5)cn5c4c3Oc3cc4c(cc3-5)oc3ccccc34)C2)CC1 [compound 403]	0.75 µM
O=C(CCN1CCOCC1)N[C@@H]1CCN(c2c(F)cc3c(=O)c(C(=O)NCCN4CCCC4)cn4c3c2Oc2cc3c(cc2-4)oc2ccccc23)C1 [compound 404]	0.75 µM
CN(C)CCCCNC(=O)c1cn2c3c(c(N4CC[C@@H](NC(=O)CCNCCN5CCOCC5)C4)c(F)cc3c1=O)Oc1cc3c(cc1-2)oc1ccccc13 [compound 405]	0.75 µM

Structure (SMILES)	IC50
CC(=O)N[C@@H]1CCN(c2c(F)cc3c(=O)c(C(=O)NCCC4CCCN4C)cn4c3c2Oc2cc3c(cc2-4)oc2ccccc23)C1 (stereo partly shown) [compound 406]	0.75 µM
CN1CCCC1CCNC(=O)c1cn2c3cc4oc5cc([N+](=O)[O-])ccc5[nH]c4cc3oc3c(NCCN4CCOCC4)c(F)cc(c1=O)c32 (stereo not shown) [compound 407]	0.75 µM
CN1CCCC1CCNC(=O)c1cn2c3cc4oc5cc([N+](=O)[O-])ccc5[nH]c4cc3oc3c(NCCCN4CCOCC4)c(F)cc(c1=O)c32 (stereo not shown) [compound 408]	0.75 µM
CN1CCCC1CCNCC(=O)N[C@@H]1CCN(c2c(F)cc3c(=O)c(C(=O)NCCN4CCCCC4)cn4c3c2Oc2cc3c(cc2-4)oc2ccccc23)C1 (stereo partly shown) [compound 409]	0.75 µM
CN1CCCC1CCNCC(=O)N[C@@H]1CCN(c2c(F)cc3c(=O)c(C(=O)NCCC4CCCN4C)cn4c3c2Oc2cc3c(cc2-4)oc2ccccc23)C1 (stereo partly shown) [compound 410]	0.75 µM
CN1CCN(C(=O)c2cn3c4c(c(N5CC[C@@H](NC(=O)CNCCC6CCCN6C)C5)c(F)cc4c2=O)Oc2cc4c(cc2-3)oc2ccccc24)CC1 (stereo partly shown) [compound 411]	0.75 µM
CN1CCCC1CCNCC(=O)N[C@@H]1CCN(c2c(F)cc3c(=O)c(C(=O)N4CCCC4)cn4c3c2Oc2cc3c(cc2-4)oc2ccccc23)C1 (stereo partly shown) [compound 412]	0.75 µM
CN1CCCC1CCNCC(=O)N[C@@H]1CCN(c2c(F)cc3c(=O)c(C(=O)N4CCCCC4)cn4c3c2Oc2cc3c(cc2-4)oc2ccccc23)C1 (stereo partly shown) [compound 413]	0.75 µM
CN1CCCC1CCNCC(=O)N[C@@H]1CCN(c2c(F)cc3c(=O)c(C(=O)NCCCn4ccnc4)cn4c3c2Oc2cc3c(cc2-4)oc2ccccc23)C1 (stereo partly shown) [compound 414]	0.75 µM
O=C(NCCCN1CCOCC1)c1cn2c3cc4oc5cc([N+](=O)[O-])ccc5[nH]c4cc3oc3c(NCCCN4CCOCC4)c(F)cc(c1=O)c32 [compound 415]	0.75 µM
CN1CCCC1CCNC(=O)c1cn2c3c(c(N4CC[C@@H](NC(=O)CCNCCCN5CCOCC5)C4)c(F)cc3c1=O)Oc1cc3c(cc1-2)oc1ccccc13 (stereo partly shown) [compound 416]	0.75 µM
O=C(NCCN1CCCC1)c1cn2c3cc4c(cc3oc3c(NCCCN5CCOCC5)c(F)cc(c1=O)c32)c(=O)c1ccccc14 [compound 418]	0.75 µM
O=C(NCCN1CCCC1)c1cn2c3cc4c(cc3oc3c(NCCN5CCOCC5)c(F)cc(c1=O)c32)c(=O)c1ccccc14 [compound 419]	0.75 µM
CN1CCCC1CCNC(=O)c1cn2c3cc4c(cc3oc3c(NCCCN5CCOCC5)c(F)cc(c1=O)c32)c(=O)c1ccccc14 (stereo not shown) [compound 420]	0.75 µM
CN1CCCC1CCNC(=O)c1cn2c3cc4c(cc3oc3c(N5CC[C@H](NC(=O)OC(C)(C)C)C5)c(F)cc(c1=O)c32)c(=O)c1ccccc14 (stereo partly shown) [compound 421]	0.75 µM
CN1CCCC1CCNC(=O)c1cn2c3cc4c(cc3oc3c(NCCN5CCOCC5)c(F)cc(c1=O)c32)c(=O)c1ccccc14 (stereo not shown) [compound 422]	0.75 µM
CN(C)CCCCNC(=O)c1cn2c3cc4c(cc3oc3c(NCCC5CCCN5C)c(F)cc(c1=O)c32)c(=O)c1ccccc14 (stereo not shown) [compound 423]	0.75 µM
O=C(NCCN1CCOCC1)c1cn2c3cc4c(cc3oc3c(NCCN5CCCC5)c(F)cc(c1=O)c32)c(=O)c1ccccc14 [compound 424]	0.75 µM
O=C(NCCN1CCOCC1)c1cn2c3cc4c(cc3oc3c(NCCCN5CCOCC5)c(F)cc(c1=O)c32)c(=O)c1ccccc14 [compound 425]	0.75 µM
